Experimental data taken from patent publication US20240076347A1, “METHODS FOR PREVENTING FUNGAL INFECTIONS” (Cidara Therapeutics, Inc., priority 2016, published 2024).
Several values for one entry are separate records, joined by “and”; a condition that tells them apart may be missing. Identical values can stand only once. Numbered stars: 1 amine (or outer) side, 2 acyl side, 3 side chain; on linkers, the order of the positions; unused ones are H or OH. Bridge positions count the residues as written; N and C are the ends. Square brackets hold non-standard residues; d marks the D form. Peptide text beside a SMILES is read from it. * marks the point of attachment. ξ: configuration not given here. Orn(4R-OH,5R-OCH2CH2NMe3+) = C[N+](C)(C)CCO[C@@H](N[*:3])[C@H](O)C[C@H](N[*:1])C(=O)[*:2]; hTyr(3S-OH,4S-OH,3'-OSO3H) = N[C@H](C(=O)O)[C@H](O)[C@@H](O)c1ccc(O)c(OS(=O)(=O)O)c1; pTerphenylCO(4''-OnC5H11) = CCCCCOc1ccc(-c2ccc(-c3ccc(C(=O)*)cc3)cc2)cc1; Orn(4R-OH,5R-OH) = O=C([C@H](C[C@@H](O)[C@@H](O)N[*:3])N[*:1])[*:2]; hTyr(3S-OH,4S-OH) = N[C@H](C(=O)O)[C@H](O)[C@@H](O)c1ccc(O)cc1; Pro(3S-OH,4S-Me) = C[C@H]1CN[C@H](C(=O)O)[C@H]1O; X2 = CCCCCOc1ccc(-c2cc(-c3ccc(C(=O)*)cc3)no2)cc1; Gln(3R-OH) = NC(=O)C[C@@H](O)[C@H](N)C(=O)O; X1 = C[C@H]1CN([*:1])C(C(=O)[*:2])C1O; Hyp = O=C(O)[C@@H]1C[C@@H](O)CN1; ξT = CC(O)C(N)C(=O)O

Assays:
A. fumigatus AF293 = test: Pulmonary aspergillosis in neutropenic ICR mice (Examples 14, 15), prophylaxis, survival; format: in vivo, Aspergillus fumigatus
Protocol: Pulmonary aspergillosis: ICR mice (10/grp) were made neutropenic by cyclophosphamide on Day −4 (150 mg/kg), and CPM/cortisone on Day −1 (150/175 mg/kg). Intranasal infection with A. fumigatus AF293 (10^5 CFU/mouse) on Day 0. Prophylaxis CD101 as a single dose (IP; 5, 10, 20 mg/kg) or posaconazole (PO; 2 and 10 mg/kg) 1 day prior to infection. Survival monitored for 10 days.
Pulmonary aspergillosis: ICR mice (10/grp) were made neutropenic by cyclophosphamide on Day −4 (150 mg/kg), and cyclophosphamide/cortisone was given on Day −1 (150/175 mg/kg). Intranasal challenge with A. fumigatus AF293 (10^5 CFU/mouse) was initiated on Day 0 and prophylaxis with CD101 as a single dose (IP; 5, 10, 20 mg/kg) or posaconazole (PO; 2 and 10 mg/kg) was started 1 day prior to infection. Survival was monitored for 10 days.

[1] = tested on: Aspergillus fumigatus strain AF293; test: Murine model of pulmonary aspergillosis (Example 16), survival and lung burden; format: in vivo; conditions: for Mean Survival / Median Survival / survival time post infection, range / mice that survived to the end of the study: Day −1; for mice that survived to the end of the study: 6 mice per group, 10 days; for Group Geometric mean / Log10 Group Geometric mean / Log10 reduction from vehicle control: terminal lung burden
Protocol: Animal strain and housing. Mice used in these studies were supplied by Charles River (Margate UK) and were specific pathogen free. The strain of mice used was ICR (also known as CD1 Mice) which is a well characterized outbred murine strain. Male mice were 11-15 g on receipt and allowed to acclimatize for at least 7 days.
Immunosuppression. Mice were immunosuppressed on Day −4 with 150 mg/kg cyclophosphamide administered intraperitoneally (IP), and on Day −1 with 150 mg/kg cyclophosphamide IP and 175 mg/kg cortisone acetate administered subcutaneously (SC). To prevent bacterial infection due to the immunosuppression mice were given once daily 50 mg/kg ceftazidime.
Preparation of Organism and Infection. A. fumigatus strain AF293 inoculum was prepared from spore cultures grown on Sabouraud Dextrose agar (SAB) containing 50 μg/mL chloramphenicol (SABC) in vented tissue culture flasks. Following incubation for 7-10 days at 30° C., spore cultures were washed in sterile phosphate buffered saline (PBS) containing 0.05% Tween 80. Spore count was determined using a haemocytometer and spores were diluted in PBS to ˜6.9×10^6 CFU/mL. Inoculum concentration was confirmed by quantitative culture onto SABC agar.
Neutropenic mice lungs were infected with 0.04 mL (0.02 mL/nare) of ˜4.17×10^6 CFU/mL (˜1.67×10^5 CFU/mouse) of A. fumigatus AF293 by intranasal (IN) instillation under temporary 2.5% isoflurane induced anesthesia.
Preparation of Test Articles. Micafungin (Mycamine, Astellas) was provided as a 50 mg vial (Lot 02323002, expiry 08/2017) and was prepared as per manufacturer's instructions by adding 5 mL saline for injection (SFI) directly into the vial to make up a 10 mg/mL stock solution. This solution was then diluted further in SFI to a working concentration of 0.5 mg/mL. […] It was prepared fresh once and stored at 4° C. until required.
Posaconazole (Noxafil 40 mg/mL oral suspension, Merck Sharp & Dohme Limited) was provided as a 40 mg/mL oral suspension (Lot N00801, expiry 04/2019). This suspension was then diluted further in water for infection (WFI) to a working concentration of 0.2 and 1 mg/mL. The suspension was administered orally (PO) at 10 mL/kg for 2 and 10 mg/kg doses respectively, was prepared fresh once and stored at 4° C. until required.
Test article CD101 stock was prepared at 6 mg/mL in 10% DMSO/1% Tween 20 diluent. A clear non particulate solution was obtained following gentle mixing. […] All doses were administered IP at 10 mL/kg. The study doses were kept at 4° C. until required.
Treatment. For this study, treatments were initiated on Day 1 pre infection according to treatment groups outlined in Table 22. A total of 36 mice (6/treatment group) were used in the study.
Endpoints. The primary endpoint for this study was survival within agreed ethical limits (>20% weight loss, severe hypothermia <34° C., inability to reach food or drink, severe hunching). Mice were monitored by daily weight measurements with observations as frequently as clinical condition required.
Mice presenting with severe clinical deterioration were humanely euthanized using an overdose of pentobarbitone administered by IP injection following clinical assessment and the time of death was recorded. Animal carcasses were stored at −20° C. before quantitative assessment of burden.
Ten days post infection all surviving animals were weighed and had their clinical condition assessed prior to being euthanized. Final survival numbers were recorded and analysed as described below and carcasses frozen at −20° C. prior to further processing.
Lung burden. A secondary endpoint for the study was terminal lung tissue burden. Immediately following confirmation of death, carcasses were frozen at −20° C. prior to tissue dissection and processing. The frozen carcasses were thawed at room temperature, the lungs removed and placed into pre-weighed bead-beating tubes containing 2 mL of PBS and subjected to mechanical disruption. […]

Candida albicans SC5314 = test: Immunocompetent DBA/2 mouse model of disseminated candidiasis, treatment, kidney CFU; format: in vivo; conditions: 24 hr
Protocol: The efficacy of CD101 SC was studied in an immunocompetent DBA/2 mouse model of disseminated candidiasis. Mice (5/grp) were challenged with Candida albicans SC5314 (ATCC: MYA-2876, fluconazole-sensitive human clinical isolate shown to be pathogenic in mice) via IV injection (100 μL, 5.0 log CFU/mouse) and treated with CD101 SC (1, 3 or 10 mg/kg). Micafungin via IP administration was tested as a positive control at the same 3 doses. At 24 hours following challenge, kidneys were harvested and processed for CFU enumeration. All comparisons were made between the treatment and time-matched vehicle groups.

Compound: CCCCCOc1ccc(-c2ccc(-c3ccc(C(=O)N[C@H]4C[C@@H](O)[C@@H](OCC[N+](C)(C)C)NC(=O)C5C(O)[C@@H](C)CN5C(=O)[C@H]([C@@H](C)O)NC(=O)[C@H]([C@H](O)[C@@H](O)c5ccc(O)cc5)NC(=O)[C@@H]5C[C@@H](O)CN5C(=O)C(C(C)O)NC4=O)cc3)cc2)cc1 (stereo partly drawn) [CD101] ({pTerphenylCO(4''-OnC5H11)}-[Orn(4R-OH,5R-OCH2CH2NMe3+)][ξT][Hyp][hTyr(3S-OH,4S-OH)]T[X1]; lactam 1-C)
- survival (A. fumigatus AF293; 20 mg/kg IP one day prior to infection (human 400 mg AUC equivalent)): increase in survival relative to control
- survival rate (A. fumigatus AF293; 20 mg/kg IP one day prior to infection, 10 days): 30%
- survival rate (A. fumigatus AF293; single dose IP (5, 10, 20 mg/kg) one day prior to infection): dose-dependent increase in survival rate
- Mean Survival ([1]; 20 mg/kg IP once): 130.4 h
- Median Survival ([1]; 20 mg/kg IP once): 74.7 h
- survival time post infection, range ([1]; 20 mg/kg IP once): 70 to 240 h
- mice that survived to the end of the study ([1]; 20 mg/kg IP once): Two
- Mean Survival ([1]; 60 mg/kg IP once): 122.7 h
- Median Survival ([1]; 60 mg/kg IP once): 88.7 h
- survival time post infection, range ([1]; 60 mg/kg IP once): 73-240
- mice that survived to the end of the study ([1]; 60 mg/kg IP once): A single mouse
- survival vs vehicle (conclusion) ([1]; 20 and 60 mg/kg once one day pre-infection): slight increase in survival, which was statistically longer than the vehicle treatment
- Group Geometric mean ([1]; 20 mg/kg IP Day −1): 4.37 × 10^3 CFU/g
- Log10 Group Geometric mean ([1]; 20 mg/kg IP Day −1): 3.64 CFU/g
- Log10 reduction from vehicle control ([1]; 20 mg/kg IP Day −1): 0.53 CFU/g
- Group Geometric mean ([1]; 60 mg/kg IP Day −1): 1.38 × 10^4 CFU/g
- Log10 Group Geometric mean ([1]; 60 mg/kg IP Day −1): 4.14 CFU/g
- Log10 reduction from vehicle control ([1]; 60 mg/kg IP Day −1): 0.03 CFU/g
- animals completely cleared of CFU burden (Candida albicans SC5314; 1 mg/kg SC): 4 of 5
- kidney CFU (Candida albicans SC5314; 1, 3 and 10 mg/kg SC, vs vehicle): significant reduction in kidney CFU
- kidney CFU (Candida albicans SC5314; 3 or 10 mg/kg SC): complete CFU clearance

Compound: CCCCCOc1ccc(-c2cc(-c3ccc(C(=O)N[C@H]4C[C@@H](O)[C@@H](O)NC(=O)[C@@H]5[C@@H](O)[C@@H](C)CN5C(=O)[C@H]([C@H](O)CC(N)=O)NC(=O)[C@H]([C@H](O)[C@@H](O)c5ccc(O)c(OS(=O)(=O)O)c5)NC(=O)[C@@H]5C[C@@H](O)CN5C(=O)[C@H]([C@@H](C)O)NC4=O)cc3)no2)cc1 [Micafungin, micafungin, reference compound] (X2-[Orn(4R-OH,5R-OH)]T[Hyp][hTyr(3S-OH,4S-OH,3'-OSO3H)][Gln(3R-OH)][Pro(3S-OH,4S-Me)]; lactam 1-C)
- survival rate (A. fumigatus AF293; 5 mg/kg (human-equivalent 100 mg)): no survivors
- Mean Survival ([1]; 5 mg/kg IP once): 92 h and 92.0 h
- Median Survival ([1]; 5 mg/kg IP once): 80 h and 80.0 h
- survival time post infection, range ([1]; 5 mg/kg IP once): 71 to 162 h
- survival vs vehicle (conclusion) ([1]; 5 mg/kg once one day pre-infection): did not show any improvement in survival
- Group Geometric mean ([1]; 5 mg/kg IP Day −1): 6.61 × 10^3 CFU/g
- Log10 Group Geometric mean ([1]; 5 mg/kg IP Day −1): 3.82 CFU/g
- Log10 reduction from vehicle control ([1]; 5 mg/kg IP Day −1): 0.35 CFU/g
- kidney CFU (Candida albicans SC5314; 10 mg/kg IP only): complete clearance
- kidney CFU (Candida albicans SC5314; 1, 3 and 10 mg/kg IP): good dose response in CFU reduction
